Patent US20180148418A1, “AMIDO-SUBSTITUTED CYCLOHEXANE DERIVATIVES” (Bayer Pharma Aktiengesellschaft, priority 2015, published 2018)

Key:
[1] = test system: wildtype Wnt signaling cascade; assay: HEK293 TOP assay (Super TopFlash luciferase reporter, Wnt-3a stimulated); assay type: cell-based; settings: HEK293 TOP reporter cells, Wnt3a at EC50, 16 hours
From the text: 7.1 Measurement of the Inhibitory Activity of Selected Compounds on the Wildtype Wnt Signaling Cascade: HEK293 TOP/FOP Assay
In order to discover and characterize small molecules which inhibit the wildtype Wnt pathway, a cellular reporter assay was employed. The corresponding assay cell was generated by transfection of the mammalian cell line HEK293 (ATCC, #CRL-1573) with the Super TopFlash vector (Morin, Science 275, 1997, 1787-1790; Molenaar et al., Cell 86 (3), 1996, 391-399). The HEK293 cell line is cultivated at 37° C. and 5% CO2 in DMEM (Life Technologies, #41965-039), supplemented with 2 mM glutamine, 20 mM HEPES, 1.4 mM pyruvate, 0.15% Na-bicarbonate and 10% foetal bovine serum (GIBCO, #10270). Stable transfectants were generated by selection with 300 μg/ml Hygromycin.
(§1) In preparation of the assay, the two cell lines were plated 24 h before beginning the test at 10000 cells per well in a 384 micro titre plate (MTP) in 30 μl growth medium. […] The recombinant human Wnt-3a was thereby applied between 2500 and 5 ng/ml in two-fold dilution steps.
(§2) Selective inhibitory activity for small molecules on the wildtype Wnt pathway was determined after parallel incubation of both (TOP and FOP) HEK293 reporter cell lines with a compound dilution series from 50 μM to 15 nM in steps of 3.16-fold dilutions in CAFTY buffer (130 mM sodium chloride, 5 mM potassium chloride, 20 mM HEPES, 1 mM magnesium chloride, 5 mM sodium bicarbonate, pH 7.4) containing 2 mM Ca^2+ and 0.01% BSA.
(§3) The compounds were thereby serially prediluted in 100% DMSO and thereafter 50 fold into the CAFTY compound dilution buffer (described above).

[2] = test system: HEK293 cells cotransfected with the FOP control vector; assay: HEK293 FOP assay (control reporter with non-functional TCF elements); assay type: cell-based; settings: 16 hours
Protocol: In a parallel approach, HEK293 cells were cotransfected with the FOP control vector and pcDNA3. The FOP vector is identical to the TOP construct, but it contains instead of functional TCF elements a randomized, non-functional sequence. For this transfection a stable transfected cell line was generated as well, based on selection with Geneticin (1 mg/ml).
as §1, §2, §3

Structure (SMILES)	IC50 ([1]; Homo sapiens, HEK293, 16 h) [nM]	IC50 ([2]; Homo sapiens) [nM]	IC50 [1] [nM]	IC50 [2] [nM]
CNC(=O)c1[nH]cnc1C(=O)N[C@H]1CC[C@]2(CC1)CC(O)N(c1ccc(F)cc1Cl)C2=O (mixture of isomers) [Example 307, N^4-[(trans)-2-(2-chloro-4-fluorophenyl)-3-hydroxy-1-oxo-2-azaspiro[4.5]dec-8-yl]-N^5-methyl-1H-imidazole-4,5-dicarboxamide (mixture of isomers at C3)]	30	≥ 50000	–	–
CC1CC2(CCC(NC(=O)c3cnn4cccnc34)CC2)C(=O)N1c1ccc(F)cc1Cl (single isomer, unassigned; enantiomer 1) [Example 356, N-[(trans)-2-(2-chloro-4-fluorophenyl)-3-methyl-1-oxo-2-azaspiro[4.5]dec-8-yl]pyrazolo[1,5-a]pyrimidine-3-carboxamide (enantiomer 1)]	–	–	26	≥ 50000
CC1CC2(CCC(NC(=O)c3cnn4cccnc34)CC2)C(=O)N1c1ccc(F)cc1Cl (single isomer, unassigned; enantiomer 2) [Example 357, N-[(trans)-2-(2-chloro-4-fluorophenyl)-3-methyl-1-oxo-2-azaspiro[4.5]dec-8-yl]pyrazolo[1,5-a]pyrimidine-3-carboxamide (enantiomer 2)]	–	–	5.3	≥ 50000
CNC(=O)c1[nH]cnc1C(=O)N[C@H]1CC[C@H](C(=O)Nc2ccc(F)cc2Cl)CC1(F)F (stereo in doubt) [Example 34, N^4-{(trans)-4-[(2-chloro-4-fluorophenyl)carbamoyl]-2,2-difluorocyclohexyl}-N^5-methyl-1H-imidazole-4,5-dicarboxamide]	210	≥ 50000	–	–
CNC(=O)c1[nH]cnc1C(=O)NC1CCC(C(=O)Nc2ccc(F)cc2Cl)CC1C (centres unmarked) [Example 38, N^4-{4-[(2-chloro-4-fluorophenyl)carbamoyl]-2-methylcyclohexyl}-N^5-methyl-1H-imidazole-4,5-dicarboxamide]	440	≥ 50000	–	–
CNC(=O)c1[nH]cnc1C(=O)NC1CCC(C(=O)Nc2ccc(F)cc2Cl)CC1C (centres unmarked) [Example 40, N^4-{4-[(2-chloro-4-fluorophenyl)carbamoyl]-2-methylcyclohexyl}-N^5-methyl-1H-imidazole-4,5-dicarboxamide]	–	–	460	≥ 50000
O=C(N[C@H]1CC[C@H](C(=O)Nc2c(F)cc(F)cc2Cl)CC1)c1cnn2cccnc12 [Example 131, N-{trans-4-[(2-chloro-4,6-difluorophenyl)carbamoyl]cyclohexyl}pyrazolo[1,5-a]pyrimidine-3-carboxamide]	140	≥ 50000	–	–
CNC(=O)c1nc[nH]c1C(=O)N[C@H]1CC[C@H](C(=O)Nc2snc(C)c2Cl)CC1 [Example 175, N^5-{trans-4-[(4-chloro-3-methyl-1,2-thiazol-5-yl)carbamoyl]cyclohexyl}-N^4-methyl-1H-imidazole-4,5-dicarboxamide]	1600	1300	–	–
CN1CCN(c2ccn3ncc(C(=O)N[C@H]4CC[C@@]5(CCN(c6ccc(F)cc6Cl)C5=O)CC4)c3n2)CC1 [Example 229, N-[(trans)-2-(2-chloro-4-fluorophenyl)-1-oxo-2-azaspiro[4.5]dec-8-yl]-5-(4-methylpiperazin-1-yl)pyrazolo[1,5-a]pyrimidine-3-carboxamide]	57	≥ 50000	–	–
Cc1cc(O)n2ncc(C(=O)N[C@H]3CC[C@@]4(CCN(c5ccc(F)cc5Cl)C4=O)CC3)c2n1 [Example 364, N-[(trans)-2-(2-chloro-4-fluorophenyl)-1-oxo-2-azaspiro[4.5]dec-8-yl]-7-hydroxy-5-methylpyrazolo[1,5-a]pyrimidine-3-carboxamide]	170	≥ 50000	–	–
